Measured values published in article PMC12339163, “Combining Plant Bioactives With Antibiotics for Enhanced Antibiofilm Activity Against Uropathogenic Staphylococcus spp. and Cytotoxicity Evaluation” (Advances in Pharmacological and Pharmaceutical Sciences, 2025).
Values after ≈ are worked out from the molar mass of the structure shown. Values joined by “and” are separate entries in the source; they are usually repeats but may differ in a detail not shown here. Equal values may be shown once. Read-outs that look alike come from different tables or passages of the source.

How the values were obtained:
S. aureus biofilm = assay: Biofilm eradication assay (MBEC, MTT); format: cell-based, Staphylococcus aureus; settings: geometric mean, S. aureus (n = 3); for minimal effective concentration: Staphylococcus aureus, 24 h
Experimental: The determination of the biofilm eradication potential of NPs and ATBs was performed as previously described. Briefly, 100 µL of bacterial inoculum (1.5 × 10^6 CFU/mL) and 100 µL of MHB + 1% glucose were introduced into the microplate, incubated at 37°C for 24 h, and the microplate was gently emptied and washed three times with PBS. Then, 200 µL of ATBs or NPs at respective concentrations ranging from 8 to 1024 µg/mL and from 16 to 2048 µg/mL were incubated at 37°C for 24 h. Once incubation was completed, the microplate was processed as described above, and the percentage of biofilm eradication was calculated using the formula below. The minimal biofilm eradicating concentration (MBEC) was recorded as the lowest concentration of the test sample that reduces 100% of biofilm:(2) % biofilm eradication=ODcontrol−ODblank−ODtest−ODblank/ODcontrol−ODblank×100.

S. epidermidis = assay: MIC and MBC, broth microdilution; format: cell-based, Staphylococcus epidermidis; settings: geometric mean, S. epidermidis (n = 3)
Experimental: Seven clinical isolates of Staphylococcus spp. including 2 S. aureus, 3 S. saprophyticus, and 2 S. epidermidis were used. They were isolated from urine samples in our previous study. Two reference strains (S. aureus ATCC1026 and S. epidermidis ATCC35984) obtained from the American Type Culture Collection were also included. They were kept in the mixture of glycerol and Mueller Hinton Broth (MHB) (1:1) at −20°C, and the activation was achieved using the streak technique on Mueller Hinton agar (MHA) medium.
The MICs of ATBs and NPs were determined by the broth microdilution method as previously described. NPs and ATBs were, respectively, prepared at 4096 µg/mL and 512 µg/mL and serially diluted twofold with MHB in a 96-well microplate at a volume of 100 µL. Then, the wells were filled with 100 µL of inoculum (1.5 × 10^6 CFU/mL) to give final concentrations ranging from 1024 µg/mL to 0.5 µg/mL and 128 µg/mL to 0.062 µg/mL of NPs and ATBs, respectively. The microplates were incubated for 24 h at 37°C. Wells containing only bacterial inoculum were used as the negative control. After incubation, a volume of 40 µL of INT solution (0.2 mg/mL) was added to each well, and the microplate was incubated at 37°C for 30 min. Viable bacteria cells change the yellow dye of INT to a pink color. The MIC was considered as the lowest concentration of the sample at which there was no change in the coloration of the medium, corresponding to the complete inhibition of microbial growth.
All tests were performed in triplicate.

[1] = test system: planktonic cells of Staphylococcus epidermidis; assay: Checkerboard combination assay, planktonic cells; format: cell-based; settings: planktonic S. epidermidis, mean MIC; for MIC alone, NPs: natural product alone, in µg/mL; for MIC alone, ATB: antibiotic alone
Experimental: The checkerboard assay, as previously described, was used for the determination of the fractional inhibitory concentration index (FICI). Briefly, 50 µL of MHB was distributed into each well of a 96-well microplate. ATBs were serially diluted along the abscissa, and NPs were serially diluted along the ordinate. Then, 100 µL of bacterial inoculum (1.5 × 10^6 CFU/mL) was added to each well and incubated at 37°C for 24 h. The final concentration ranged from 0.125 to 128 µg/mL for ATBs and 4–512 µg/mL for NPs. After incubation, a volume of 40 µL of INT solution (0.2 mg/mL) was added to each well, and the microplate was incubated at 37°C for 30 min. The wells containing bacterial inoculum and MHB were used as a positive control, while wells containing only MHB + 1% glucose were used as a negative control and used as a blank. Viable bacteria cells change the yellow dye of INT to a pink color. The MICs were considered to be the lowest NP concentrations that prevented the color change medium. Subsequently, the FICI was calculated according to the formula FICI = (MIC of the ATBs in combination/MIC of the ATBs alone) + (MIC of a natural substance in combination/MIC of the natural substance alone). FICI values were interpreted as follows: synergy when FICI ≤ 0.5; additive when 0.5 < FICI ≤ 1; indifference when 1 < FICI ≤ 4; and antagonism when FICI > 4.

[2] = test system: Staphylococcus aureus biofilm; assay: Checkerboard combination assay, biofilm inhibition; format: cell-based; settings: for MBIC alone, ATB: antibiotic alone
Experimental: (§1) The effect of the combination of ATBs with NPs on biofilm formation was evaluated by determining the FICI, as described above for planktonic cells, except that the MHB was supplemented with 1% glucose.
(§2) The lowest MBICs of ATBs or NPs that inhibited metabolic activity in the biofilm were determined as described above. The FICI was used to perform the effect of combination and calculated as follows: FICI: (MBIC of ATBs in combinations/MBIC of ATBs alone) + (MBIC of NP in the combinations/MBIC of NP alone). FICI was interpreted as indicated above.

[3] = test system: Staphylococcus epidermidis biofilm; assay: Checkerboard combination assay, biofilm inhibition; format: cell-based
Experimental: as §1, §2

[4] = test system: Staphylococcus saprophyticus biofilm; assay: Checkerboard combination assay, biofilm inhibition; format: cell-based
Experimental: as §1, §2

[5] = test system: Staphylococcus epidermidis biofilm; assay: Checkerboard combination assay, biofilm eradication; format: cell-based; settings: for MBEC Alone ATB: antibiotic alone
Experimental: The effect of the combination of ATBs with NPs on the preformed biofilm was evaluated by determining the FICI, as described above for biofilm formation, with slight modifications. After biofilm formation for 24 h, the plate was gently emptied and washed three times with PBS. Then, 50 µL of ATBs and 50 µL of NPs were introduced to the plate. The final concentration ranges from 0.0625 to 128 µg/mL and from 4 to 512 µg/mL for ATBs and NPs, respectively, and is incubated at 37°C for 24 h. After incubation, the medium was gently removed, and the plate was washed three times with PBS. At the end of the incubation time, the MTT reduction assay was performed, and the MBEC was determined. To assess the effect of the combination, the FICI was calculated and interpreted as described above.

[6] = Staphylococcus epidermidis, read-out: MIC
[7] = Staphylococcus epidermidis, natural products, read-out: MBC
[8] = S. epidermidis, biofilm inhibition, mean
[9] = natural product alone, S. epidermidis biofilm inhibition
[10] = S. saprophyticus, biofilm inhibition, mean
[11] = S. epidermidis biofilm eradication, mean MBEC
[12] = antibiotic alone, S. saprophyticus biofilm inhibition
[13] = Staphylococcus epidermidis, antibiotics, read-out: MBC
[14] = antibiotic alone, S. epidermidis biofilm inhibition

`O=c1c(O)c(-c2ccc(O)c(O)c2)oc2cc(O)cc(O)c12` [Quercetin, quercetin] was tested, and the minimal effective concentration (S. aureus biofilm) was 128 µg/mL, the MIC (S. epidermidis; [6]) was 512 µg/mL (≈ 1690 µM) and the MBC (S. epidermidis; [7]) was greater than 1020 µg/mL. The “MIC alone, NPs” value ([1]; listed as Que) was 512 and 362.66, the “MBIC alone, NPs” value ([2]; natural product alone, S. aureus biofilm inhibition, listed as Que) was 426.66 µg/mL and 512 µg/mL and 362.66 µg/mL and the “MBIC alone, NPs” value ([3]; natural product alone, S. epidermidis biofilm inhibition, listed as Que) was 512 µg/mL and 384 µg/mL. The “MBIC alone, NPs” value ([4]; natural product alone, S. saprophyticus biofilm inhibition, listed as Que) was 426.66 µg/mL and 512 µg/mL.

`CC1=CC(=O)c2c(O)cccc2C1=O` [Plumbagin, plumbagin] was tested, and the minimal effective concentration (S. aureus biofilm) was 32 µg/mL, the MIC (S. epidermidis; [6]) was 90.7 µg/mL (≈ 482 µM) and the MBC (S. epidermidis; [7]) was greater than 1020 µg/mL. The “MBEC Alone NPs” value ([5]; S. epidermidis, biofilm eradication, mean, listed as Plu) was 13.33 µg/mL and 16 µg/mL, the “MBIC alone, NPs” value ([2]; S. aureus, biofilm inhibition, mean) was 10.66 µg/mL and the “MBIC alone, NPs” value ([2]; natural product alone, S. aureus biofilm inhibition, listed as Pb) was 10.66 µg/mL. The “MBIC alone, NPs” value [3, 8] was 8 µg/mL, the “MBIC alone, NPs” value [3, 9] was 8 µg/mL and the “MBIC alone, NPs” value [4, 10] was 16 µg/mL. For the same compound, the “MBIC alone, NPs” value ([4]; natural product alone, S. saprophyticus biofilm inhibition) was 6.66 µg/mL.

Compound `NC[C@H]1O[C@H](O[C@H]2[C@H](O)[C@@H](O[C@H]3O[C@H](CO)[C@@H](O)[C@H](N)[C@H]3O)[C@H](N)C[C@@H]2N)[C@H](O)[C@@H](O)[C@@H]1O` [Kanamycin, kanamycin] has an MBEC (S. aureus biofilm) of 14.66 µg/mL, an MBC (S. epidermidis; antibiotics) of 12 µg/mL (≈ 24.8 µM) and an MIC (S. epidermidis) of 7.33 µg/mL (≈ 15.1 µM). For the same compound, the “MBEC Alone ATB” value [5, 11] was 13.33 µg/mL, the MIC alone, ATB [1] was 7.33 µg/mL and the “MBIC alone, ATB” value ([2]; S. aureus biofilm inhibition) was 1.83 µg/mL. The “MBIC alone, ATB” value [3, 8] was 24.66 µg/mL, the “MBIC alone, ATB” value ([3]; antibiotic alone, S. epidermidis biofilm inhibition, listed as Kan) was 24.66 µg/mL and 43.33 µg/mL and the “MBIC alone, ATB” value [4, 10] was 4.08 µg/mL. The “MBIC alone, ATB” value [4, 12] was 4.083 µg/mL.

`CC[C@H]1OC(=O)[C@H](C)[C@@H](O[C@H]2C[C@@](C)(OC)[C@@H](O)[C@H](C)O2)[C@H](C)[C@@H](O[C@@H]2O[C@H](C)C[C@H](N(C)C)[C@H]2O)[C@](C)(O)C[C@@H](C)C(=O)[C@H](C)[C@@H](O)[C@]1(C)O` [Erythromycin, erythromycin] showed a minimal effective concentration (S. aureus biofilm) of 42.8 µg/mL, an MBC (S. epidermidis; [13]) greater than 128 µg/mL and an MIC (S. epidermidis; [6]) of 32.7 µg/mL (≈ 44.5 µM). The “MBEC Alone ATB” value [5, 11] was 18.66 µg/mL, the MIC alone, ATB [1] was 32.7 µg/mL and the “MBIC alone, ATB” value ([2]; S. aureus biofilm inhibition) was 42.83 µg/mL. For the same compound, the “MBIC alone, ATB” value [3, 14] was 24 µg/mL and the “MBIC alone, ATB” value [4, 12] was 27.33 µg/mL.

`C=CC1=C(C(=O)O)N2C(=O)[C@@H](NC(=O)/C(=N\OCC(=O)O)c3csc(N)n3)[C@H]2SC1` [Cefixime, cefixime] showed a minimal effective concentration (S. aureus biofilm) of 42.7 µg/mL, an MBC (S. epidermidis; [13]) greater than 128 µg/mL and an MIC (S. epidermidis; [6]) of 107 µg/mL (≈ 235 µM). The “MBEC Alone ATB” value [5, 11] was 42.66 µg/mL, the MIC alone, ATB [1] was 107 µg/mL and the “MBIC alone, ATB” value ([2]; S. aureus biofilm inhibition) was 64 µg/mL. The “MBIC alone, ATB” value [3, 14] was 64 µg/mL and the “MBIC alone, ATB” value [4, 12] was 48 µg/mL.

With `COc1cc(/C=C/C(=O)CC(=O)/C=C/c2ccc(O)c(OC)c2)ccc1O` [Curcumin, curcumin] the minimal effective concentration (S. aureus biofilm) was 149 µg/mL, the MIC (S. epidermidis; [6]) was 384 µg/mL (≈ 1040 µM) and the MBC (S. epidermidis; [7]) was greater than 1020 µg/mL. For the same compound, the “MBEC Alone NPs” value ([5]; S. epidermidis biofilm eradication, natural product alone, mean MBEC, listed as Cur) was 106.66 µg/mL and 128 µg/mL, the “MIC alone, NPs” value [1] was 384 and the “MBIC alone, NPs” value [3, 8] was 128 µg/mL. For the same compound, the “MBIC alone, NPs” value [3, 9] was 128 µg/mL and the “MBIC alone, NPs” value [4, 10] was 106.66 µg/mL.
